Measurements published in patent US9562891B2, “Method for screening patient-specific anti-cancer agent using limiting dilution assay” (Samsung Life Public Welfare Foundation, priority 2013, dated 2017).

Tests used:
[1] = tested on: 775T cell line (patient-derived brain glioblastoma); test: Screening of anti-cancer agent using limiting dilution assay (sphere formation, ratio of non-formed wells); type: cell-based, human; conditions: 775T as compared to 448T and 464T cell lines; cultured 2 to 3 weeks (FIG. 5)
Source text: The patient-specific anti-cancer agent was screened by using a limiting dilution assay according to the above-described Examples, and a result obtained therefrom was compared with a result separately obtained by a screening method using a 96 well plate. Alginate gel containing 2, 5, 10, 20, 50 or 100 cells was discharged onto each micropillar and was subjected to stamping into a culture medium containing the anti-cancer agent. The anti-cancer agent SU11274 and PHA665752, which is c-Met inhibitor, was treated for each concentration. A size of spheres formed after being cultured for 2 to 3 weeks was automatically measured and analyzed. Whether or not the sphere is formed was determined by culturing cells of the experimental group and the control group up to 4 doubling times and comparing sphere area max values of the biggest spheres among the spheres formed in each well, as shown in FIG. 4. […] Here, the well having sphere area max value smaller than the reference value was determined that the spheres were not formed in the well (non-formed). The well having sphere area max value as the same as the average value of the sphere area max of the control group or higher than that was determined that the sphere were formed in the well (formed). […]

[2] = tested on: patient-derived cancer cells (brain glioblastoma); test: Three-dimensional culture of patient-derived cancer cells in alginate on micropillar chip, Calcein AM sphere staining; type: cell-based, human
Protocol: The suspension-cultured neurospheres obtained in Example above were collected and treated with 0.025% trypsin/EDTA for 3 minutes, thereby obtaining cell suspensions at a level of a single cell. The cell suspensions were prepared at a concentration of 4 cells/30 nl, 10 cells/30 nl, 20 cells/30 nl, 40 cells/30 nl, 100 cells/30 nl and 200 cells/30 nl, respectively. 50 μL of 3% alginate (Sigma-Aldrich, US) and 100 μL distilled water were mixed to prepare 1% alginate, and then the cell suspensions and 1% alginate as prepared above were mixed together in the same amount. The prepared alginate/cell mixture was discharged onto the surface-modified micropillar using a microarray spotter (Samsung Electro-Mechanics Co., Korea), followed by gelation for 2 minutes so that an alginate gel containing 2, 5, 10, 20, 50 or 100 cells was fixed onto each micropillar (FIG. 1). Each of 950 nl of 2 μM, 5 μM or 10 μM SU11274 (Sigma-Aldrich, US) was dispersed into a microwell chip (Samsung Electro-Mechanics Co., Korea) and the micropillar chip was subjected to stamping. […] 4 doubling time incubation was performed until spheres were formed from the patient-derived cancer cells, and the micropillar chip was subjected to fluorescence staining. […]

Row | SMILES | sensitivity of cell line to anti-cancer effect in limiting dilution assay [1] | survival rate of the cancer cells ([2]; 2 μM, 5 μM or 10 μM, 2-100 cells per alginate gel, cultured 12 days, Calcein AM staining (FIG. 2)) | sphere formation (maximum sphere area) ([2]; 5 uM, 12 days, control group sphere areas increased to a maximum of 10.14 times (FIG. 3))
1 | Cc1[nH]c(/C=C2\C(=O)Nc3ccc(S(=O)(=O)Cc4c(Cl)cccc4Cl)cc32)c(C)c1C(=O)N1CCC[C@@H]1CN1CCCC1 [PHA665752] | most sensitive anti-cancer effects | – | –
2 | Cc1[nH]c(/C=C2\C(=O)Nc3ccc(S(=O)(=O)N(C)c4cccc(Cl)c4)cc32)c(C)c1C(=O)N1CCN(C)CC1 [SU11274] | most sensitive anti-cancer effects | survival rate of the cancer cells were decreased | did not form the spheres
